Data published in patent US10765114B2, “4-amino-6-(pyridyl and 2-substitutedphenyl)-picolinates and 6-amino-2-(pyridyl and 2-substitutedphenyl)-pyrimidine-4-carboxylates and their use as herbicides” (Dow AgroSciences LLC, priority 2013, dated 2020).

Columns and labels:
Experiment in all cases: Postemergence Herbicidal Activity in Direct Seeded Rice
Assay type in all cases: in vivo
[1] = system: LEFSS: sprangletop including Chinese sprangletop (Leptochloa chinensis), green sprangletop (Leptochloa dubia); conditions: for Visual Growth Reduction (%) 21 Days After Application, LEFSS: postemergence, direct seeded rice; for GR50, LEFSS: Growth reduction of 50% of plant growth; for GR50, LEFSS / GR80, LEFSS: probit analysis; for GR80, LEFSS: Growth reduction of 80% of plant growth
Excerpt: (§1) Seeds or nutlets of the desired test plant species were planted in a soil matrix prepared by mixing a loam soil (43 percent silt, 19 percent clay, and 38 percent sand, with a pH of about 8.1 and an organic matter content of about 1.5 percent) and river sand in an 80 to 20 ratio. The soil matrix was contained in plastic pots with a surface area of 139.7 cm^2. When required to ensure good germination and healthy plants, a fungicide treatment and/or other chemical or physical treatment was applied. The plants were grown for 10-17 days in a greenhouse with an approximate 14-h photoperiod which was maintained at about 29° C. during the day and 26° C. during the night. Nutrients and water were added on a regular basis and supplemental lighting was provided with overhead metal halide 1000-Watt lamps as necessary. The plants were employed for testing when they reached the second or third true leaf stage.
(§2) A weighed amount, determined by the highest rate to be tested, of each test compound was placed in 25 mL glass vials and dissolved in a volume of 97:3 v/v acetone-DMSO to obtain 12× stock solutions. […] The concentrated stock solutions were added to the spray solutions so that the final acetone and DMSO concentrations were 16.2% and 0.5%, respectively. Spray solutions were diluted to the appropriate final concentrations with the addition of 10 mL of an aqueous mixture of 1.5% (v/v) Agri-dex crop oil concentrate. The final spray solutions contained 1.25% (v/v) Agri-dex crop oil concentrate. Compound requirements are based upon a 12 mL application volume at a rate of 187 L/ha. Formulated compounds were applied to the plant material with an overhead Mandel track sprayer equipped with 8002E nozzles calibrated to deliver 187 L/ha over an application area of 0.503 square meters (m^2) at a spray height of 18 inches (43 cm) above average plant canopy height. Control plants were sprayed in the same manner with the solvent blank.
(§3) The treated plants and control plants were placed in a greenhouse as described above and watered by sub-irrigation to prevent wash-off of the test compounds. After 20-22 days, the condition of the test plants, compared with that of the untreated plants, was determined visually and scored on a scale of 0 to 100 percent where 0 corresponds to no injury and 100 corresponds to complete kill and presented as indicated in Table A.
(§4) By applying the well-accepted probit analysis as described by J. Berkson in Journal of the American Statistical Society, 48, 565 (1953) and by D. Finney in “Probit Analysis” Cambridge University Press (1952), herbicidal injury of a specific compound at various rates can be used to calculate GR20, GR50, GR80 and GR90 values, which are defined as growth reduction factors that correspond to the effective dose of herbicide required to provide plant growth reduction (GR) of 20 percent, 50 percent, 80 percent and 90 percent, respectively. Probit analysis was applied to data collected from multiple dose rates of individual compounds utilizing the procedures explained in the following examples. The analysis of those dose rates is captured in the following tables

[2] = system: CYPSS: sedge including small-flower flatsedge (Cyperus difformis), yellow nutsedge (Cyperus esculentus), rice flatsedge (Cyperus iria); conditions: for Visual Growth Reduction (%) 21 Days After Application, CYPSS: postemergence, direct seeded rice; for GR50, CYPSS: Growth reduction of 50% of plant growth; for GR50, CYPSS / GR80, CYPSS: probit analysis; for GR80, CYPSS: Growth reduction of 80% of plant growth
Excerpt: as §1, §2, §3, §4

[3] = system: SCPJU: Japanese bulrush, Schoenoplectus juncoides; conditions: for Visual Growth Reduction (%) 21 Days After Application, SCPJU: postemergence, direct seeded rice; for GR50, SCPJU: Growth reduction of 50% of plant growth; for GR50, SCPJU / GR80, SCPJU: probit analysis; for GR80, SCPJU: Growth reduction of 80% of plant growth
Excerpt: as §1, §2, §3, §4

[4] = system: ECHSS: including barnyardgrass, (Echinochloa crus-galli), junglerice, (Echinochloa colonum); conditions: for Visual Growth Reduction (%) 21 Days After Application, ECHSS: postemergence, direct seeded rice; for GR50, ECHSS: Growth reduction of 50% of plant growth; for GR50, ECHSS / GR80, ECHSS: probit analysis; for GR80, ECHSS: Growth reduction of 80% of plant growth
Excerpt: as §1, §2, §3, §4

[5] = system: ORYSS: Oryza sativa; conditions: for Visual Growth Reduction (%) 21 Days After Application, ORYSS: postemergence, direct seeded rice; for GR20, ORYSS: Growth reduction of 20% of plant growth, probit analysis
Excerpt: as §1, §2, §3, §4

[6] = system: BRAPP: broadleaf signalgrass, Brachiaria platyphylla; conditions: for Visual Growth Reduction (%) 21 Days After Application, BRAPP: postemergence, direct seeded rice; for GR50, BRAPP: Growth reduction of 50% of plant growth; for GR50, BRAPP / GR80, BRAPP: probit analysis; for GR80, BRAPP: Growth reduction of 80% of plant growth
Excerpt: as §1, §2, §3, §4

[7] = system: SEBEX: hemp sesbania, Sesbania exaltata; conditions: for Visual Growth Reduction (%) 21 Days After Application, SEBEX: postemergence, direct seeded rice; for GR50, SEBEX: Growth reduction of 50% of plant growth; for GR50, SEBEX / GR80, SEBEX: probit analysis; for GR80, SEBEX: Growth reduction of 80% of plant growth
Excerpt: as §1, §2, §3, §4

SMILES	Visual Growth Reduction (%) 21 Days After Application, LEFSS ([1]; 35 g ai/ha)	Visual Growth Reduction (%) 21 Days After Application, LEFSS ([1]; 70 g ai/ha)	GR50, LEFSS [1] [g ai/ha]	GR80, LEFSS [1] [g ai/ha]	Visual Growth Reduction (%) 21 Days After Application, CYPSS ([2]; 35 g ai/ha)	Visual Growth Reduction (%) 21 Days After Application, CYPSS ([2]; 70 g ai/ha)	GR50, CYPSS [2] [g ai/ha]	GR80, CYPSS [2] [g ai/ha]	GR50, SCPJU [3] [g ai/ha]	GR80, SCPJU [3] [g ai/ha]	Visual Growth Reduction (%) 21 Days After Application, ECHSS ([4]; 35 g ai/ha)	Visual Growth Reduction (%) 21 Days After Application, ECHSS ([4]; 70 g ai/ha)	GR50, ECHSS [4] [g ai/ha]	GR80, ECHSS [4] [g ai/ha]	Visual Growth Reduction (%) 21 Days After Application, ORYSS ([5]; 35 g ai/ha)	Visual Growth Reduction (%) 21 Days After Application, ORYSS ([5]; 70 g ai/ha)	GR20, ORYSS [5] [g ai/ha]	Visual Growth Reduction (%) 21 Days After Application, BRAPP ([6]; 35 g ai/ha)	Visual Growth Reduction (%) 21 Days After Application, BRAPP ([6]; 70 g ai/ha)	GR50, BRAPP [6] [g ai/ha]	further results
COC(=O)c1nc(-c2ccc(C(F)(F)F)nc2)c(C)c(N)c1Cl [Compound 32]	F (30-44)	E (45-59)	59	133	A (95-100)	A (95-100)	1	2	<17.5	<17.5	B (85-94)	A (95-100)	21	35	G (0-29)	F (30-44)	36	B (85-94)	B (85-94)	14	Visual Growth Reduction (%) 21 Days After Application, SCPJU ([3]; 35 g ai/ha): A (95-100); Visual Growth Reduction (%) 21 Days After Application, SCPJU ([3]; 70 g ai/ha): A (95-100); GR80, BRAPP [6]: 35 g ai/ha; Visual Growth Reduction (%) 21 Days After Application, SEBEX ([7]; 35 g ai/ha): A (95-100); Visual Growth Reduction (%) 21 Days After Application, SEBEX ([7]; 70 g ai/ha): A (95-100); GR50, SEBEX [7]: 3 g ai/ha; GR80, SEBEX [7]: 9 g ai/ha
Nc1c(Cl)c(C(=O)O)nc(-c2ccc(C(F)(F)F)nc2)c1Cl [Compound 33]	E (45-59)	C (75-84)	30	77	A (95-100)	A (95-100)	4	7	<17.5	<17.5	C (75-84)	A (95-100)	1	1	D (60-74)	C (75-84)	8	A (95-100)	A (95-100)	3	Visual Growth Reduction (%) 21 Days After Application, SCPJU ([3]; 35 g ai/ha): A (95-100); Visual Growth Reduction (%) 21 Days After Application, SCPJU ([3]; 70 g ai/ha): A (95-100); GR80, BRAPP [6]: 11 g ai/ha; Visual Growth Reduction (%) 21 Days After Application, SEBEX ([7]; 35 g ai/ha): A (95-100); Visual Growth Reduction (%) 21 Days After Application, SEBEX ([7]; 70 g ai/ha): A (95-100); GR50, SEBEX [7]: 1 g ai/ha; GR80, SEBEX [7]: 1 g ai/ha
COC(=O)c1nc(-c2ccc(Cl)nc2F)c(F)c(N)c1Cl [Compound 45]	G (0-29)	D (60-74)	>140	>140	B (85-94)	A (95-100)	3	7	1	1	F (30-44)	B (85-94)	16	>140	G (0-29)	G (0-29)	>140	G (0-29)	G (0-29)	>140	GR80, BRAPP [6]: >140 g ai/ha; Visual Growth Reduction (%) 21 Days After Application, SEBEX ([7]; 35 g ai/ha): A (95-100); Visual Growth Reduction (%) 21 Days After Application, SEBEX ([7]; 70 g ai/ha): A (95-100); GR50, SEBEX [7]: 1 g ai/ha; GR80, SEBEX [7]: 2 g ai/ha
COC(=O)c1nc(-c2ccc(C(F)(F)F)nc2)c(F)c(N)c1Cl [Compound 59, methyl 4-amino-5-chloro-3-fluoro-6′-(trifluoromethyl)-[2,3′-bipyridine]-6-carboxylate]	D (60-74)	B (85-94)	27	48	A (95-100)	A (95-100)	2	3	<17.5	<17.5	B (85-94)	B (85-94)	3	15	E (45-59)	E (45-59)	18	B (85-94)	B (85-94)	3	Visual Growth Reduction (%) 21 Days After Application, SCPJU ([3]; 35 g ai/ha): A (95-100); Visual Growth Reduction (%) 21 Days After Application, SCPJU ([3]; 70 g ai/ha): A (95-100); GR80, BRAPP [6]: 16 g ai/ha; Visual Growth Reduction (%) 21 Days After Application, SEBEX ([7]; 35 g ai/ha): A (95-100); Visual Growth Reduction (%) 21 Days After Application, SEBEX ([7]; 70 g ai/ha): A (95-100); GR50, SEBEX [7]: 1 g ai/ha; GR80, SEBEX [7]: 1 g ai/ha
